# Reference: patent publication US3988466A, “Prevention of gastric lesions” (priority 1973, dated 1976)
# Where “and” joins values, the source holds several entries; their conditions need not be identical. Equal entries are not always repeated. Entries after “also recorded” stand apart in the source; their conditions may differ. Where two headings read alike, the source gives them in different places.
# Key:
# [1] = tested on: aspirin-induced gastric lesions in pylorus-ligated rats; test: Effect of various amino acids on aspirin-induced gastric lesions in pylorus-ligated rats (Experiment 3); type: in vivo, male Donryu strain rats
# [2] = pH of amino acids in 1% carboxymethylcellulose solution; type: physicochemical; conditions: 150 mg/ml in 1% carboxymethylcellulose solution
# Method: The pH values of the amino acids are also determined. The amino acids are separately dissolved or suspended in 1% carboxymethylcellulose solution at a concentration of 150 mg/ml and the pH is measured on an Hitachi pH meter (product of Hitachi Ltd., Japan).
# [3] = tested on: gastric secretion in pylorus-ligated rats; test: Effect of L-glutamine on gastric secretion in pylorus-ligated rats (Experiment 4); type: in vivo, male Donryu strain rats
# Method: In this Experiment, 7 groups of male Donryu strain rats are used. After 24 hours of fasting, the pylorus of the animal is ligated in the same manner as described in Experiment 1. Six groups are treated in the same manner as described in Experiment 1 except for the injection of the solution of pontamine sky blue 6BX in saline. A seventh group (normal) is treated twice with 5 ml/kg of 1% carboxymethylcellulose solution.
# After 7 hours of pylorus ligation, the animals are killed and the stomach is removed. The gastric juice is collected and the volume is measured. The gastric juice is titrated to pH 7.4 with 0.1N NaOH using an electromatic pH meter. The concentration of pepsin in the gastric juice is also determined according to Anson's hemoglobin method [Anson, M. L., J. Gen. Physiol.
# [4] = tested on: yeast-induced fever in rats; test: Effect of L-glutamine on antipyretic activity of aspirin in rats (Experiment B); type: in vivo, male Wistar strain rats; conditions: aspirin 200 mg/kg oral
# Method: In this Experiment, male Wistar strain rats weighing about 90-100 g are treated with 2.5 ml/rat of a suspension of yeast (Brewers Yeast, product of Nutritional Biochem. Co., U.S.A.) in physiological saline (concentration: 250 mg/ml), by subcutaneous injection in the back, according to the method of Gleen et al [Gleen, E. M. et al: J. Pharma. Exp. Therp., 155, 157 (1967)]. The animals are then fasted. The animals showing an increased rectal temperature of 38° C or more after 17 hours are selected for use in experiment. […] As a control, one group is treated with 105 ml of 1% carboxymethylcellulose solution alone. After the treatment, the rectal temperature is measured at the time indicated.
# [5] = tested on: acetic acid-induced writhing response in mice; test: Effect of L-glutamine on analgesic activity of aspirin in mice (Experiment C); type: in vivo, male dd strain mice; conditions: aspirin 300 mg/kg oral; writhings in 10 minutes
# Method: In this Experiment, 3 groups of male dd strain mice weighing 19-21 g are used.
# As a control, the third group is treated only with 1% carboxymethylcellulose solution. After a control period of one hour, the animals are treated with 0.2 ml of 0.7% acetic acid solution in physiological saline by intraperitoneal injection, according to the method of Koster et al. [Koster, R. et al: Fed. Proc., 18, 412 (1959)]. Starting 10 minutes after the administration of acetic acid, the number of writhing reaction occurred in 10 minutes is counted.
# [6] = Rattus norvegicus, po; read-out: Inhibition
# [7] = amino acid 750 mg/kg oral; aspirin by gastric intubation
# [8] = Rattus norvegicus, po, read-out: Inhibition
# [9] = Control group: aspirin 100 mg/kg without L-glutamine, 7 hours
Amino acid pH [2],Compound,"inhibition in vivo at 750 mg/kg [1, 6] [%]","Ulcer index [1, 7] [mm]",effect on aspirin-induced gastric lesions (in words) ([1]; amino acid 750 mg/kg oral),also measured
8.27,NC(Cc1c[nH]c2ccccc12)C(=O)O (racemic) [DL-tryptophan],39.2,27.4±4.3,,
5.51,NC(=O)CC[C@@H](N)C(=O)O [D-glutamine],82.9,7.7±1.8,,
6.45,C[C@H](N)C(=O)O [L-alanine],85.1,6.7±1.5,,
5.80,NC(=O)C[C@H](N)C(=O)O [L-asparagine],77.8,10.0±2.2,,
3.33,N[C@@H](CC(=O)O)C(=O)O [L-aspartic acid],17.3,37.3±6.9,no appreciable effect; also recorded: no significant effect,
5.81,N[C@@H](CS)C(=O)O [L-cysteine],10.2,40.5±7.6,no appreciable effect,
6.62,N[C@@H](CSSC[C@H](N)C(=O)O)C(=O)O [L-cystine],7.8,41.6±3.9,no appreciable effect,
3.45,N[C@@H](CCC(=O)O)C(=O)O [L-glutamic acid],79.8,9.1±2.6,good effect,
7.86,N[C@@H](Cc1c[nH]cn1)C(=O)O [L-histidine],95.3,2.1±0.8,,
6.60,CC[C@H](C)[C@H](N)C(=O)O [L-isoleucine],72.6,11.9±2.3,effective for the prevention of the gastric lesions with high significance,
7.15,CC(C)C[C@H](N)C(=O)O [L-leucine],80.5,8.8±2.8,,
6.09,CSCC[C@H](N)C(=O)O [L-methionine],71.2,13.0±3.3,effective for the prevention of the gastric lesions with high significance,
6.26,N[C@@H](Cc1ccccc1)C(=O)O [L-phenylalanine],52.3,21.5±3.7,significant inhibition of the lesions,
6.32,O=C(O)[C@@H]1CCCN1 [L-proline],77.6,10.1±2.3,,
6.11,N[C@@H](CO)C(=O)O [L-serine],93.3,3.0±1.0,,
6.26,C[C@@H](O)[C@H](N)C(=O)O [L-threonine],89.6,4.7±1.1,,
6.80,CC(C)[C@H](N)C(=O)O [L-valine],91.8,3.7±1.3,,
,"CC(=O)Oc1ccccc1C(=O)O [aspirin, reference compound]",,,,"Gastric juice volume [3, 9]: 12.5 ± 0.5 mL; Pepsin concentration [3, 9]: 31.8 ± 1.0 mg/mL; Titrable acidity [3, 9]: 65.1±5.7 mEq/L; concentration of pepsin (in words) ([3]; administration of aspirin): increased; effect on acid output (in words) ([3]; aspirin itself): considerably reduces the titrable acidity and acid output; effect on titrable acidity (in words) ([3]; aspirin itself): considerably reduces the titrable acidity; effect on volume of gastric juice (in words) ([3]; aspirin itself): does not affect the volume of gastric juice; Rectal temperature ([4]; 0 hour): 38.4±0.1 °C; Rectal temperature ([4]; 1 hour): 37.9±0.1 °C; Rectal temperature ([4]; 2 hours): 36.7±0.2 °C; Rectal temperature ([4]; 4 hours): 36.6±0.1 °C; Rectal temperature ([4]; 6 hours): 36.9±0.2 °C; Writhing response number [5]: 10±1"

Compound,Amino acid pH [2],"inhibition in vivo at 750 mg/kg [1, 6] [%]","Ulcer index [1, 7] [mm]",effect on aspirin-induced gastric lesions (in words) ([1]; amino acid 750 mg/kg oral),also measured
N=C(N)NCCC[C@H](N)C(=O)O [L-arginine],11.00,,0.9±0.5,prevent the aspirin-induced gastric lesions almost completely; also recorded: best preventive effect,"inhibition in vivo at 750 mg/kg [1, 8]: 98%"
O=C(O)[C@@H]1C[C@@H](O)CN1 [L-hydroxyproline],7.86,,12.8±2.6,effective for the prevention of the gastric lesions with high significance,"inhibition in vivo at 750 mg/kg [1, 8]: 71.6%"
NCCCC[C@H](N)C(=O)O [L-lysine],10.26,,0.4±0.2,prevent the aspirin-induced gastric lesions almost completely; also recorded: best preventive effect,"inhibition in vivo at 750 mg/kg [1, 8]: 99.1%"
N[C@@H](Cc1ccc(O)cc1)C(=O)O [L-tyrosine],7.52 and 7.25,,39.3±3.0,no appreciable effect; also recorded: no significant effect,"inhibition in vivo at 750 mg/kg [1, 8]: 12.9%"
NCC(=O)O [glycine],6.12,,6.4±1.7,,"inhibition in vivo at 750 mg/kg [1, 8]: 85.8%"
